Data set [1] in a line: HPLC/MS measurement of inhibitor concentration in urine after subcutaneous administration. The data set is classed as in vivo, mouse. As to conditions: 4 times daily for 3 days, 5 mg/kg/day; for concentration at 1 h: 1 hour after final dosing; for concentration at 5 h: 5 hour after final dosing. The protocol:
CFTR inhibitors (5-10 mg/kg/day) or saline DMSO vehicle control (0.05 mL/injection) were administrated by subcutaneous injection on the backs of neonatal mice four times a day for 3 or 7 days using a 1 cc insulin syringe, beginning at age 2 days (11 mice per group). Pkd1^flox/+; Ksp-Cre or Pkd1^flox/+ mice from the same litter were used as controls. During the treatment period, control and Pkd1^flox/−; Ksp-Cre mice, with or without CFTR inhibitor treatment, were indistinguishable in their activity and behavior. Body weight was measured at day 5 (3 days after treatment), at which time there was no difference in body weight in any of the mouse groups. Blood and urine samples were collected for measurements of CFTR inhibitor concentration and renal function. Kidneys were removed and weighed, and fixed for histological examination or homogenized for determination of CFTR inhibitor content.
For high-performance liquid chromatography/mass spectrometry (HPLC/MS) analysis of CFTR inhibitor concentration, kidneys were homogenized in 50-100 μl of PBS for 5 min using an EPPENDORF pellet pestle homogenizer. The homogenate was mixed with an equal volume of chilled acetonitrile to precipitate proteins. After centrifugation at 5000×g for 10 min the supernatant was evaporated under nitrogen, and the residue was dissolved in eluent (50% CH3CN/20 mM NH4OAc). Urine samples were directly diluted 10-fold with eluent. Reversed-phase HPLC separations were carried out using a WATERS C18 column (2.1×100 mm, 2.5 μm particle size) equipped with a solvent delivery system (WATERS model 2690, Milford, Mass.). The solvent system consisted of a linear gradient from 20% CH3CN/20 mM NH4OAc to 95% CH3CN/20 mM NH4OAc, run over 20 min, followed by 5 min at 95% CH3CN/20 mM NH4OAc (0.2 mL/min flow rate). Mass spectra were acquired on an Alliance HT 2790+ZQ mass spectrometer using negative ion detection, scanning from 150 to 1500 Da. The electrospray ion source parameters were: capillary voltage 3.2 kV (negative ion mode) or 3.5 kV (positive ion mode), cone voltage 37 V, source temperature 120° C., desolvation temperature 250° C., cone gas flow 25 L/h, and dessolvation gas flow 350 L/h.
Concentrations were measured to establish dosing to give sustained concentrations in kidney/urine of >1 μM, where CFTR is inhibited. Kidney and urine samples were obtained from mice after 4 times daily subcutaneous administration for 3 days at 5 mg/kg/day, a dose regimen determined from preliminary studies. Urinary concentrations were measured at 1 and 5 hour after the final dosing. For tetrazolo-CFTRinh-172, urine concentrations were 3.3 and 3.6 μM at 1 and 5 hour, respectively. The urine concentrations of Ph-GlyH-101 were 4.3 and 5.8 μM. […] These concentrations are several-fold greater than the IC50 for CFTR inhibition.

For the next data set, the target named is human wildtype CFTR (Homo sapiens, UniProt P13569). Description: Short-circuit current measurements, apical chloride current in FRT cells. The data set is classed as cell-based. Also on record: expressed in transfected cells; host or cells: FRT (Fisher rat thyroid) cells.
The subject of the next data set is MDCK cells. In words: MDCK cell cyst model of polycystic kidney disease. The data set is classed as cell-based, Canine. As to conditions: for effect on MDCK cyst enlargement (in words): 1 μM. An excerpt:
An MDCK cell model of polycystic kidney disease was used to screen CFTR inhibitors of the thiazolidinone and glycine hydrazide classes for reducing cyst formation and expansion. […] Culture of MDCK cells in three-dimensional collagen gels produces a polarized, single-layer, thinned epithelium surrounding a fluid-filled space, apical […] microvilli, a solitary cilium, and apical tight junctions (see, e.g., McAteer et al., Scan Elect Microsc (Pt 3): 1135-1150, 1986; McAteer et al., Scanning Microsc 2: 1739-1763, 1988; and Taide et al., Eur J Clin Invest 26: 506-513, 1996).
Type I MDCK cells (ATCC No. CCL-34) were cultured at 37° C. in a humidified 95% air/5% CO2 atmosphere in a 1:1 mixture of Dulbecco's modified Eagle's medium (DMEM) and Ham's F-12 nutrient medium supplemented with 10% fetal bovine serum (Hyclone), 100 U/mL penicillin and 100 μg/mL streptomycin. To generate cysts, four hundred MDCK cells were suspended in 0.4 ml of ice-cold Minimum Essential Medium containing 2.9 mg/mL collagen (PuRECOL, Inamed Biomaterials, Fremont Calif.), 10 mM HEPES, 27 mM NaHCO3, 100 U/mL penicillin and 100 μg/mL streptomycin (pH 7.4). The cell suspension was plated onto 24-well plates. After gelation, 1.5 mL of MDCK cell medium containing 10 μM forskolin was added to each well and plates were maintained at 37° C. in a 5% CO2 humidified atmosphere.
The compound structures together with their approximate CFTR inhibition potencies (expressed as IC50 values) are provided in FIGS. 3 and 4. Indicated IC50 values for T01-07, T10, T12-14 were reported by Ma et al. (J Clin Invest 110: 1651-1658 (2002)). IC50 values for T08, T11, and T16 were determined by short-circuit analysis performed according to methods described herein. Indicated IC50 values for G01-05, G8-16 were reported by Sonawane et al. (FASEB J. 20: 130-132 (2006); Sonawane et al., Gastroenterology 132:1234-44 (2007)). IC50 values for G06 and G07 were determined by short-circuit current analysis performed according to methods described herein.
Medium containing forskolin and test compounds was changed every 12 h. At day 6, cysts (with diameters >50 μm) and non-cyst cell colonies were counted by phase-contrast light microscopy at 20× magnification (546 nm monochromatic illumination) using a Nikon TE 2000-S inverted microscope. In some experiments, compounds were added to medium in the continued presence of forskolin from day 4 after seeding and the medium containing forskolin and compounds was changed every 12 h for 8 days. Micrographs showing the same cysts in collagen gels (identified by markings on plates) were obtained every 2 days. For determination of cyst growth, cyst diameters were measured using Image J software. At least 10 cysts/well and 3 wells/group were measured for each condition.

[2] abbreviates: values in text, forskolin-stimulated CFTR, read-out: IC50 (short-circuit current).

Read-outs that look alike come from different tables or passages of the source.

human wildtype CFTR, sequence (P13569 whole entry): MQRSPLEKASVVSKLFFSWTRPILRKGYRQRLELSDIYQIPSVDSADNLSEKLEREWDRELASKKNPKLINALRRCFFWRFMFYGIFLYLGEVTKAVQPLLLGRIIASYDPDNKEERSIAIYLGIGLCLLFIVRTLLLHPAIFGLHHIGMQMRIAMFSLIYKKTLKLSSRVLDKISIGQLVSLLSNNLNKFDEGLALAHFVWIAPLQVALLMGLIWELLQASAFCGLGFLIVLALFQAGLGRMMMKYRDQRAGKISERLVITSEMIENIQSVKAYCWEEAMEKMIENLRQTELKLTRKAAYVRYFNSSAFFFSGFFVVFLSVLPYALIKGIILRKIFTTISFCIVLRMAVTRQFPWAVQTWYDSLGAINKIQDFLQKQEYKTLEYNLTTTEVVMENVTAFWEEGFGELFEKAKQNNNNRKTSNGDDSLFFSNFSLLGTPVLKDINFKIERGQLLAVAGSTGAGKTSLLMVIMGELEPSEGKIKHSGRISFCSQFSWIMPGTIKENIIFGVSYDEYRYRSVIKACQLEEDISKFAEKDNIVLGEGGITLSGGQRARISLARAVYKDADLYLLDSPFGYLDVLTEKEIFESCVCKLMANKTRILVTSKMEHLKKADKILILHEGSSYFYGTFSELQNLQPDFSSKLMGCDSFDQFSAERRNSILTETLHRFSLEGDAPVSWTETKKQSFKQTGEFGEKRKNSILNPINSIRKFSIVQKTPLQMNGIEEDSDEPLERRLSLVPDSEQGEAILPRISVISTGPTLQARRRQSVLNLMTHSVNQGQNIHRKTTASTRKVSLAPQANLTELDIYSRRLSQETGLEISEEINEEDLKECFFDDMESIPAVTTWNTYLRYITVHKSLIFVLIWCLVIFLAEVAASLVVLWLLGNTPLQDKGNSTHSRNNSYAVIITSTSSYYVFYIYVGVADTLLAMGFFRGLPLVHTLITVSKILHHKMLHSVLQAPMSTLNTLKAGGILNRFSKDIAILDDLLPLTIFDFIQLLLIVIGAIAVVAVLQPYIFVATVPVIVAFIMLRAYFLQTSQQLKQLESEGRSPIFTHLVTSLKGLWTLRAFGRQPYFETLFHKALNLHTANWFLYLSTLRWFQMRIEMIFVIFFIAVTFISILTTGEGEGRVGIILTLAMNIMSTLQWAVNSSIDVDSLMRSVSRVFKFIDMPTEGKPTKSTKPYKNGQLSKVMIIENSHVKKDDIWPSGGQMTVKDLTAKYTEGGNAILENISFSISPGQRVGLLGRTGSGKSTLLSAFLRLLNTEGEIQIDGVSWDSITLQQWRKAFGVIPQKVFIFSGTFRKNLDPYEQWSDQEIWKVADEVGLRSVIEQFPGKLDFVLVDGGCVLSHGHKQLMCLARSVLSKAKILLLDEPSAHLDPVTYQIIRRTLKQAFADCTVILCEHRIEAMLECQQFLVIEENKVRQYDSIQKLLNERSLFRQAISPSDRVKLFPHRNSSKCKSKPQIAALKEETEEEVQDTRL
Description for human wildtype CFTR: Short-circuit current measurements. FRT cells (stably expressing human wildtype CFTR) were cultured on [sequence] filters with 1 cm^2 surface area (Corning-Costar) to resistance >1,000 Ω·cm^2 as described (see, e.g., Ma et al., J. Clin. Invest. 110:1651-1658 ((2002)); Sonawane et al., FASEB J. 20:130-132 (2006)). Filters were mounted in an Easymount Chamber System (Physiologic Instruments, San Diego). For apical current measurements, the basolateral hemichamber contained (in mM): 130 NaCl, 2.7 KCl, 1.5 KH2PO4, 1 CaCl2, 0.5 MgCl2, 10 Na-HEPES, 10 glucose (pH 7.3). The basolateral membrane was permeabilized with amphotericin B (250 μg/ml) for 30 min. In the apical solution 65 mM NaCl was replaced by sodium gluconate, and CaCl2 was increased to 2 mM. Solutions were bubbled with 95% O2/5% CO2 and maintained at 37° C. Current was recorded using a DVC-1000 voltage-clamp (World Precision Instruments) using Ag/AgCl electrodes and 1 M KCl agar bridges.
CFTR was stimulated by cAMP agonist forskolin and increasing concentration of test compounds was added.

Regarding `O=C1/C(=C/c2ccc(-c3nn[nH]n3)cc2)SC(=S)N1c1cccc(C(F)(F)F)c1` [Compound 6, (Z)-5-(4-(1H-tetrazol-5-yl)benzylidene)-2-thioxo-3-(3-(trifluoromethyl)phenyl)thiazolidin-4-one], in data set [1] (C57BL/6, mouse, urine, sc), the concentration at 1 h was 3.3 µM and the concentration at 5 h was 3.6 µM. The IC50 at human wildtype CFTR (setting [2]) fell in the range of 0.5 to 1 µM.

In the case of `O=C1/C(=C/c2ccc(-c3nnn[nH]3)cc2)SC(=S)N1c1cccc(C(F)(F)F)c1` [Compound 6, (Z)-5-(4-(1H-tetrazol-5-yl)benzylidene)-2-thioxo-3-(3-(trifluoromethyl)phenyl)thiazolidin-4-one], the “effect on MDCK cyst enlargement (in words)” value in the data set on MDCK cells is listed as “strongly inhibited cyst enlargement”. In addition, the “effect on MDCK cyst enlargement/formation (in words)” value in the data set with MDCK cells (10 μM) is “slowed cyst enlargement”. In addition, the inhibition at 10 µM with MDCK cells (Canis lupus familiaris, MDCK, 10 μM, forskolin 10 μM, cyst diameter, read-out: inhibition of cyst growth) is above 70%. The IC50 at human wildtype CFTR (Table 3, inhibition potency, read-out: IC50) is 0.76 ± 0.2 µM; on human wildtype CFTR (setting [2]), 0.8 µM. In addition, on human wildtype CFTR (compared with CFTRinh-172 or Oxo-172, listed as Tetrazolo-172), the “inhibition kinetics (in words)” value is given as “slower inhibition kinetics”. In addition, the “inhibition of CFTR in short-circuit current analysis (in words)” value against human wildtype CFTR (increasing concentration, forskolin-stimulated) is reported as “dose dependant inhibition”.

On to “N-2-naphthalenyl-2-hydroxyethyl-[(3,5-dibromo-2,4-dihydroxyphenyl)methylene]phenylglycinehydrazide [Compound G07]”, for which the “effect on MDCK cyst enlargement (in words)” value in the data set with MDCK cells is on record as “strongly inhibited cyst enlargement”. For the same compound, in data set [1], the concentration at 1 h was determined as 4.3 µM and the concentration at 5 h was determined as 5.8 µM.

What is called IC50 is the concentration at which inhibition is half-maximal. The term inhibition denotes the percentage by which the read-out fell short of the control.

These data come from patent publication US20110105565A1, “WATER SOLUBLE SMALL MOLECULE INHIBITORS OF THE CYSTIC FIBROSIS TRANSMEMBRANE CONDUCTANCE REGULATOR” (THE REGENTS OF THE UNIVERSITY OF CALIFORNIA, priority 2008, published 2011).
